The source made the active and inactive calls. No cut-off for these calls is given here.
What was measured:
PANC-1 [1] = assay: Induction of mitochondrial membrane potential loss in human PANC-1 cells assessed as depolarized cells at IC50 incubated for 24 hrs by JC-1 staining based flow cytometry assay (reference value: 5%); assay type: functional
[2] = Selectivity index, ratio of IC50 for cytotoxicity against human CCD 19Lu cells to IC50 for cytotoxicity against human A549 cells; assay type: toxicity, cell-based; conditions: CCD 19Lu cells versus A549 cells, read-out: Ratio IC50
[3] = Cytotoxicity against human hTERT-HPNE cells assessed as inhibition of cell growth incubated for 24 hrs by MTT assay; assay type: toxicity, cell-based
[4] = Selectivity index, ratio of IC50 for cytotoxicity against human hTERT-HPNE cells to IC50 for cytotoxicity against human PANC-1 cells; assay type: toxicity, cell-based; conditions: hTERT-HPNE cells versus PANC-1 cells, read-out: Ratio IC50
PANC-1 [5] = assay: Cytotoxicity against human PANC-1 cells assessed as inhibition of cell growth incubated for 24 hrs by MTT assay; assay type: functional, cell-based; conditions: PANC-1, 24 h
[6] = molecular target: Cathepsin D (Homo sapiens) (UniProt P07339); assay: Inhibition of cathepsin D (unknown origin) at 100 uM relative to control
PANC-1 [7] = assay: Inhibition of DNA synthesis in human PANC-1 cells at 6.51 uM incubated for 24 hrs by BrdU incorporation assay relative to control; assay type: functional
PANC-1 [8] = assay: Induction of apoptosis in human PANC-1 cells assessed as early apoptotic cells at IC50 incubated for 24 hrs by annexin V-FITC/PI staining based flow cytometry analysis (reference value: 0%); assay type: functional
PANC-1 [9] = assay: Induction of apoptosis in human PANC-1 cells assessed as late apoptotic cells at IC50 incubated for 24 hrs by annexin V-FITC/PI staining based flow cytometry analysis (reference value: 0.2%); assay type: functional
PANC-1 [10] = assay: Induction of mitochondrial membrane potential loss in human PANC-1 cells assessed as polarized cells at IC50 incubated for 24 hrs by JC-1 staining based flow cytometry assay (reference value: 92%); assay type: functional
PANC-1 [11] = assay: Induction of apoptosis in human PANC-1 cells assessed as activation of caspase-3 by measuring caspase-3 negative cells at IC50 incubated for 24 hrs by flow cytometry analysis (reference value: 98.5 %); assay type: functional
PANC-1 [12] = assay: Induction of morphological changes in human PANC-1 cells assessed as formation of apoptotic bodies at 6.51 uM incubated for 24 hrs by acridine orange/ethidium bromide staining based fluorescence microscopic analysis; assay type: functional, cell-based
PANC-1 [13] = assay: Induction of morphological changes in human PANC-1 cells assessed as chromatin condensation at 6.51 uM incubated for 24 hrs by acridine orange/ethidium bromide staining based fluorescence microscopic analysis; assay type: functional, cell-based
PANC-1 [14] = assay: Induction of apoptosis in human PANC-1 cells assessed as total cell viability at IC50 incubated for 24 hrs by annexin V-FITC/PI staining based flow cytometry analysis (reference value: 84.4%); assay type: functional
[15] = Cytotoxicity against human CCD 19Lu cells assessed as inhibition of cell growth incubated for 24 hrs by MTT assay; assay type: toxicity, cell-based
PANC-1 [16] = assay: Induction of apoptosis in human PANC-1 cells assessed as total apoptotic cells at IC50 incubated for 24 hrs by annexin V-FITC/PI staining based flow cytometry analysis relative to control; assay type: functional
PANC-1 [17] = assay: Induction of morphological changes in human PANC-1 cells assessed as cell shrinkage at 6.51 uM incubated for 24 hrs by acridine orange/ethidium bromide staining based fluorescence microscopic analysis; assay type: functional
[18] = molecular target: Procathepsin L (Homo sapiens) (UniProt P07711); assay: Inhibition of cathepsin L (unknown origin) at 100 uM
A549 [19] = assay: Cytotoxicity against human A549 cells assessed as inhibition of cell growth incubated for 24 hrs by MTT assay; assay type: functional, cell-based; conditions: A549, 24 h
PANC-1 [20] = assay: Induction of apoptosis in human PANC-1 cells assessed as activation of caspase-3 by measuring caspase-3 positive cells at IC50 incubated for 24 hrs by flow cytometry analysis (reference value: 1.8%); assay type: functional
A549 [21] = assay: Inhibition of DNA synthesis in human A549 cells at 5.99 uM incubated for 24 hrs by BrdU incorporation assay relative to control; assay type: functional
A549 [22] = assay: Induction of apoptosis in human A549 cells assessed as late apoptotic cells at IC50 incubated for 24 hrs by annexin V-FITC/PI staining based flow cytometry analysis (reference value: 6.5 %); assay type: functional
A549 [23] = assay: Induction of morphological changes in human A549 cells assessed as cell shrinkage at 5.99 uM incubated for 24 hrs by acridine orange/ethidium bromide staining based fluorescence microscopic analysis; assay type: functional
A549 [24] = assay: Induction of apoptosis in human A549 cells assessed as total apoptotic cells at IC50 incubated for 24 hrs by annexin V-FITC/PI staining based flow cytometry analysis relative to control; assay type: functional
A549 [25] = assay: Induction of mitochondrial membrane potential loss in human A549 cells assessed as depolarized cells at IC50 incubated for 24 hrs by JC-1 staining based flow cytometry assay (reference value: 6.9%); assay type: functional
A549 [26] = assay: Induction of mitochondrial membrane potential loss in human A549 cells assessed as polarized cells at IC50 incubated for 24 hrs by JC-1 staining based flow cytometry assay (reference value: 90.6%); assay type: functional
PANC-1 [27] = assay: Induction of morphological changes in human PANC-1 cells assessed as formation of apoptotic bodies at 5.99 uM incubated for 24 hrs by acridine orange/ethidium bromide staining based fluorescence microscopic analysis; assay type: functional, cell-based
A549 [28] = assay: Induction of apoptosis in human A549 cells assessed as early apoptotic cells at IC50 incubated for 24 hrs by annexin V-FITC/PI staining based flow cytometry analysis (reference value: 5.6%); assay type: functional
PANC-1 [29] = assay: Induction of morphological changes in human PANC-1 cells assessed as cell shrinkage at 5.99 uM incubated for 24 hrs by acridine orange/ethidium bromide staining based fluorescence microscopic analysis; assay type: functional
PANC-1 [30] = assay: Inhibition of DNA synthesis in human PANC-1 cells at 5.99 uM incubated for 24 hrs by BrdU incorporation assay relative to control; assay type: functional
PANC-1 [31] = assay: Induction of morphological changes in human PANC-1 cells assessed as chromatin condensation at 5.99 uM incubated for 24 hrs by acridine orange/ethidium bromide staining based fluorescence microscopic analysis; assay type: functional, cell-based
A549 [32] = assay: Induction of morphological changes in human A549 cells assessed as formation of apoptotic bodies at 5.99 uM incubated for 24 hrs by acridine orange/ethidium bromide staining based fluorescence microscopic analysis; assay type: functional, cell-based
A549 [33] = assay: Induction of morphological changes in human A549 cells assessed as chromatin condensation at 5.99 uM incubated for 24 hrs by acridine orange/ethidium bromide staining based fluorescence microscopic analysis; assay type: functional, cell-based
A549 [34] = assay: Induction of apoptosis in human A549 cells assessed as activation of caspase-3 by measuring caspase-3 negative cells at IC50 incubated for 24 hrs by flow cytometry analysis (reference value: 91.1%); assay type: functional
A549 [35] = assay: Induction of apoptosis in human A549 cells assessed as activation of caspase-3 by measuring caspase-3 positive cells at IC50 incubated for 24 hrs by flow cytometry analysis (reference value: 8.4%); assay type: functional
A549 [36] = assay: Induction of apoptosis in human A549 cells assessed as increase in intracellular calcium level at 5.99 uM by Fluo-4-AM staining based flow cytometry analysis; assay type: functional, cell-based
A549 [37] = assay: Induction of apoptosis in human A549 cells assessed as total cell viability at IC50 incubated for 24 hrs by annexin V-FITC/PI staining based flow cytometry analysis (reference value: 85.6 %); assay type: functional

Cathepsin D (Homo sapiens), sequence (P07339 65-162 limits assumed): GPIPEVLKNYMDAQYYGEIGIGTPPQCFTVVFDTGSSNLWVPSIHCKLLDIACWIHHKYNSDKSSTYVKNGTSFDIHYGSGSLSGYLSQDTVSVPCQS
Cathepsin D (Homo sapiens), sequence (P07339 169-412 limits assumed): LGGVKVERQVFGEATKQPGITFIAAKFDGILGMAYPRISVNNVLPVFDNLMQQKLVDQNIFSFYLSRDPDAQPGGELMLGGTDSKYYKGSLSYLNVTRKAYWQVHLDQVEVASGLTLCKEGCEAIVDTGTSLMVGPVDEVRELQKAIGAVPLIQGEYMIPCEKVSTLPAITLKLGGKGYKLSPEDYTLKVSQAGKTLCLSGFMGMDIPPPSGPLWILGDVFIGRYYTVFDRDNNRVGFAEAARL
Procathepsin L (Homo sapiens), sequence (P07711 114-333 limits assumed): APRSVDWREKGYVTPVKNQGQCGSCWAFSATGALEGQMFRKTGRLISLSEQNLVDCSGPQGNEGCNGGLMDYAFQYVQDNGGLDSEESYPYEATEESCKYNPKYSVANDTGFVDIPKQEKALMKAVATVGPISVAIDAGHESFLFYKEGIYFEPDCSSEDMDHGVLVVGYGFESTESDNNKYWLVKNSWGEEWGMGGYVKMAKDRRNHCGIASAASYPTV

CN(C)c1ccc(/C=C2\Cc3cc4c(cc3C2=O)OCO4)cc1
Activity (PANC-1 [1]): 11%
selectivity ratio [2]: > 24.6
IC50 at 24 h [3]: > 1630 µM
selectivity ratio [4]: > 128
IC50 (PANC-1 [5]): < 12.7 µM
inhibition [6]: 27.5%
inhibition at 6.51 µM (PANC-1 [7]): 16.9%
Activity (PANC-1 [8]): 24.7%
Activity (PANC-1 [9]): 15.9%
Activity (PANC-1 [10]): 83.9%
Activity (PANC-1 [11]): 96.5%
Activity (PANC-1 [12]): Active
Activity (PANC-1 [13]): Active
Activity (PANC-1 [14]): 50.4%
IC50 at 24 h [15]: > 1630 µM
Activity (PANC-1 [16]): 40.6%
Activity (PANC-1 [17]): Active
inhibition [18]: inactive
IC50 (A549 [19]): 66.2 µM
Activity (PANC-1 [20]): 4.7%

O=C1/C(=C/c2ccc(N3CCCC3)cc2)Cc2cc3c(cc21)OCO3
inhibition at 5.99 µM (A549 [21]): 4.41%
Activity (A549 [22]): 20%
Activity (PANC-1 [1]): 16.7%
selectivity ratio [2]: > 5.25
IC50 at 24 h [3]: > 1500 µM
selectivity ratio [4]: > 128
IC50 (PANC-1 [5]): < 11.7 µM
inhibition [6]: 52.7%
Activity (A549 [23]): Active
Activity (A549 [24]): 85.4%
Activity (PANC-1 [8]): 0.6%
Activity (A549 [25]): 65%
Activity (A549 [26]): 76.4%
Activity (PANC-1 [27]): Active
Activity (A549 [28]): 65.4%
Activity (PANC-1 [9]): 3.4%
Activity (PANC-1 [10]): 82%
Activity (PANC-1 [29]): Active
Activity (PANC-1 [11]): 89.6%
inhibition at 5.99 µM (PANC-1 [30]): 31%
Activity (PANC-1 [31]): Active
Activity (A549 [32]): Active
Activity (PANC-1 [14]): 76.3%
IC50 at 24 h [15]: 61.5 µM
IC50 (A549 [19]): < 11.7 µM
Activity (PANC-1 [20]): 11.3%
Activity (A549 [33]): Active
Activity (A549 [34]): 92.5%
Activity (A549 [35]): 7.4%
Activity (A549 [36]): Active
Activity (A549 [37]): 12.5%

Source: ChEMBL document CHEMBL5247607, “Design, synthesis and biological evaluation of a new series of arylidene indanones as small molecules for targeted therapy of non-small cell lung carcinoma and prostate cancer” (Eur J Med Chem, 2022)
